SMILES strings stand for the structures.

For this assay, the system named is Streptococcus pyogenes (ATCC# 97-03 14289). Put plainly: Anti-microbial screen (percent inhibition of growth, OD 570 nm). In kind it is cell-based. As to conditions: Conc 0.1776 mg ml. The protocol: Streptococcus pyogenes (ATCC# 97-03 14289) was grown in Todd Hewitt Broth (THB) (Difco Laboratories #0492-17-6) overnight until reaching an optical density of (OD=0.636@570 nm) by reading 0.1 ml in a 96 well microtiter plate in a Molecular Devices Thermomax. This preparation was kept frozen as stocks in 30% v/v glycerol in 1.5 ml aliquots at […] until use. Prior to experiments, 6 ml aliquots were thawed and diluted into 50 ml 2×THB. 60 ul of this dilution was added to 92 wells of microtiter plate. To three wells THB (200 ul) was added to serve as a blank and a sterility control. Test compounds in DMSO and appropriate concentrations of DMSO were added to Growth/Solvent Controls at 0 time. Plates were read at 0 time at 570 nm in the Molecular Devices plate reader to obtain compounds correction factors for insoluble or colored compounds. Plates were read again at 4 hours.
Percent inhibition is calculated with the following formula:
Color correct=O.D. 0 hr - Blank 0 hr)-(Solvent Control Ohr - Blank 0 hr) [formula]

[1] abbreviates: Spy4H: Streptococcus pyogenes, read at 4 hours, OD 570 nm.
The mark [2] stands for this setting: Streptococcus pyogenes, Assay Spy4H, plates read at 570 nm at 0 time and at 4 hours.

On to `Cc1ccc(CN(Cc2ccc(O)cc2)/C(=N\c2ccc(C(F)(F)F)cc2)Sc2ccc(C)cc2C)cc1` [Cmpd 7], for which the inhibition of growth at 177.6 µg/mL under setting [1] was 63.7%. Turning to `Cc1ccc(CN(Cc2ccc(O)cc2)/C(=N/c2ccc(Cl)c(Cl)c2)Sc2ccc(C)cc2C)cc1` [Cmpd 8], under setting [1], the inhibition of growth at 177.6 µg/mL amounted to 57.5%. Take `Cc1ccc(CN(Cc2ccc(O)cc2)/C(=N/c2cc(Cl)cc(Cl)c2)Sc2ccc(C)cc2C)cc1` [Cmpd 13]: testing at 177.6 µg/mL under setting [1] gave an inhibition of growth of 65.7%.

For the compound `Cc1ccc(CN(Cc2ccc(O)cc2)/C(=N\c2ccc(Cl)c([N+](=O)[O-])c2)Sc2ccc(C)cc2C)cc1` [Cmpd 23], the inhibition of growth at 177.6 µg/mL under setting [1] worked out at 61.3%.

Regarding `Cc1ccc(CN(Cc2ccc(O)cc2)/C(=N/c2ccccc2[N+](=O)[O-])Sc2ccc(C)cc2C)cc1` [Cmpd 26], 177.6 µg/mL produced 58.1% inhibition of growth under setting [1].

Under setting [2], `COc1ccc(C)cc1/N=C(\Sc1ccc(C)cc1C)N(Cc1ccc(C)cc1)Cc1ccc(O)cc1` [Cmpd 29] came in with an inhibition of growth at 177.6 µg/mL of 53.7%.

Turning to `Cc1ccc(CN(Cc2ccc(O)cc2)/C(=N\c2ccc(Cl)c(C(F)(F)F)c2)Sc2ccc(C)cc2C)cc1` [Cmpd 33], under setting [1], the inhibition of growth at 177.6 µg/mL stood at 57.8%. Take `Cc1ccc(CN(Cc2ccc(O)cc2)/C(=N/c2ccc(F)c(F)c2)Sc2ccc(C)cc2C)cc1` [Cmpd 36]: under setting [2], the inhibition of growth at 177.6 µg/mL came to 56.8%. As for `COc1cccc(S/C(=N\Cc2ccc(F)cc2)N(Cc2ccc(O)cc2)Cc2ccc(Cl)c(Cl)c2)c1` [Cmpd 44], the inhibition of growth at 177.6 µg/mL under setting [1] turned out to be 67.5%.

Take `COc1cccc(S/C(=N\c2cccc(C(F)(F)F)c2)N(Cc2ccc(O)cc2)Cc2ccc(Cl)c(Cl)c2)c1` [Cmpd 46]: 177.6 µg/mL produced 60.6% inhibition of growth under setting [1].

Compound `COc1cccc(S/C(=N\c2ccc(C(F)(F)F)cc2)N(Cc2ccc(O)cc2)Cc2ccc(Cl)c(Cl)c2)c1` [Cmpd 47] returned an inhibition of growth at 177.6 µg/mL under setting [1] of 85.8%. The compound `COc1cccc(S/C(=N\c2cccc(Cl)c2)N(Cc2ccc(O)cc2)Cc2ccc(Cl)c(Cl)c2)c1` [Cmpd 52] gave an inhibition of growth at 177.6 µg/mL under setting [2] of 52.6%.

`COc1cccc(S/C(=N\c2cc(Cl)cc(Cl)c2)N(Cc2ccc(O)cc2)Cc2ccc(Cl)c(Cl)c2)c1` [Cmpd 53]: the inhibition of growth at 177.6 µg/mL under setting [1] amounted to 70.2%.

For `COc1cccc(S/C(=N\c2ccc(Cl)c([N+](=O)[O-])c2)N(Cc2ccc(O)cc2)Cc2ccc(Cl)c(Cl)c2)c1` [Cmpd 63], under setting [1], the inhibition of growth at 177.6 µg/mL stood at 66.8%.

The compound `COc1cccc(S/C(=N/c2ccc(Cl)c(C(F)(F)F)c2)N(Cc2ccc(O)cc2)Cc2ccc(Cl)c(Cl)c2)c1` [Cmpd 73] yielded an inhibition of growth at 177.6 µg/mL under setting [1] of 85.8%.

Take `COc1cccc(S/C(=N/c2ccc(OC(F)(F)F)cc2)N(Cc2ccc(O)cc2)Cc2ccc(Cl)c(Cl)c2)c1` [Cmpd 75]: the inhibition of growth at 177.6 µg/mL under setting [2] amounted to 52.3%. Under setting [1], `COCCN(Cc1cccc(O)c1)/C(=N\c1cccc(F)c1)Sc1ccc(C)cc1C` [Cmpd 83] showed an inhibition of growth at 177.6 µg/mL of 70.9%. On the same count and under the same terms, then `COCCN(Cc1cccc(O)c1)/C(=N\c1ccc(F)cc1F)Sc1ccc(C)cc1C` [Cmpd 85], with 82.3%; and `COCCN(Cc1cccc(O)c1)/C(=N\c1ccc(C)cc1)Sc1ccc(C)cc1C` [Cmpd 90], with 81.3%; and `COCCN(Cc1cccc(O)c1)/C(=N\c1cccc(Cl)c1)Sc1ccc(C)cc1C` [Cmpd 92], with 59.8%. With `COCCN(Cc1cccc(O)c1)/C(=N\c1ccc(F)c(Cl)c1)Sc1ccc(C)cc1C` [Cmpd 94], testing at 177.6 µg/mL under setting [2] gave an inhibition of growth of 54%. Turning to `CCc1cccc(/N=C(/Sc2ccc(C)cc2C)N(CCOC)Cc2cccc(O)c2)c1` [Cmpd 98], testing at 177.6 µg/mL under setting [1] gave an inhibition of growth of 69.9%. The same measure, in the same setting: then `COCCN(Cc1cccc(O)c1)/C(=N\c1ccc(Cl)c([N+](=O)[O-])c1)Sc1ccc(C)cc1C` [Cmpd 103], with 58.9%. For `COCCN(Cc1cccc(O)c1)/C(=N\c1cc(C)ccc1OC)Sc1ccc(C)cc1C` [Cmpd 109], the inhibition of growth at 177.6 µg/mL under setting [2] worked out at 56.3%. `COCCN(Cc1cccc(O)c1)/C(=N\c1ccc(Cl)c(C(F)(F)F)c1)Sc1ccc(C)cc1C` [Cmpd 113] displayed an inhibition of growth at 177.6 µg/mL under setting [1] of 59.8%.

The term inhibition of growth denotes the share of the control response that was lost under treatment. Low values mean little suppression, high ones strong suppression.

The record behind these values is patent US20040010036A1, “N,N, -Substituted s-Aryl-Isothioureas, N,N,N, -Substituted s-Aryl-Isothioureas and combinatorial libraries thereof” (priority 2002, published 2004).
